Laboratory results from ChEMBL document CHEMBL3877316, “Synthesis of pharmacologically important naphthoquinones and anticancer activity of 2-benzyllawsone through DNA topoisomerase-II inhibition” (Bioorg Med Chem, 2017).
Calls of active or inactive are those of the source. The rule behind the calls is not given here.

Experiments:
Mus musculus [1] = experiment: Acute toxicity in Swiss albino mouse assessed as serum SGOT level at 5 mg/kg, po qd administered as single dose for 7 days (reference value: 34.32 +/- 3.78 U/L); format: organism-based; conditions: in vivo, 168 h
[2] = Antiproliferative activity against human MCF7 cells after 48 hrs by SRB assay; format: functional, cell-based; conditions: MCF7, 48 h
[3] = Antiproliferative activity against HEK293 cells after 48 hrs by SRB assay; format: cell-based; conditions: Homo sapiens, HEK293, 48 h
FaDu = experiment: Inhibition of topoisomerase-2 in human FADU cells at 2 times antiproliferative IC50 after 24 hrs by ELISA relative to control; format: cell-based
[4] = Cell cycle arrest in human FADU cells assessed as accumulation at S phase at 2.5 to 10 uM by propidium iodide staining based flow cytometry; format: functional
Mus musculus [5] = experiment: Acute toxicity in Swiss albino mouse assessed as mortality up to 1000 mg/kg, po qd administered as single dose for 7 days; format: organism-based; conditions: in vivo, 168 h
Mus musculus [6] = experiment: Acute toxicity in Swiss albino mouse assessed as changes in gait up to 1000 mg/kg, po qd administered as single dose for 7 days; format: organism-based; conditions: in vivo, 168 h
Mus musculus [7] = experiment: Acute toxicity in Swiss albino mouse assessed as changes in response of mouse up to 1000 mg/kg, po qd administered as single dose for 7 days; format: organism-based; conditions: in vivo, 168 h
Mus musculus [8] = experiment: Acute toxicity in Swiss albino mouse assessed as changes in relative weight of liver up to 1000 mg/kg, po qd administered as single dose for 7 days; format: organism-based; conditions: in vivo, 168 h
Mus musculus [9] = experiment: Acute toxicity in Swiss albino mouse assessed as changes in relative weight of lungs up to 1000 mg/kg, po qd administered as single dose for 7 days; format: organism-based; conditions: in vivo, 168 h
Mus musculus [10] = experiment: Acute toxicity in Swiss albino mouse assessed as changes in absolute weight of brain up to 1000 mg/kg, po qd administered as single dose for 7 days; format: organism-based; conditions: in vivo, 168 h
Mus musculus [11] = experiment: Acute toxicity in Swiss albino mouse assessed as changes in relative weight of brain up to 1000 mg/kg, po qd administered as single dose for 7 days; format: organism-based; conditions: in vivo, 168 h
Mus musculus [12] = experiment: Acute toxicity in Swiss albino mouse assessed as changes in absolute weight of heart up to 1000 mg/kg, po qd administered as single dose for 7 days; format: organism-based; conditions: in vivo, 168 h
Mus musculus [13] = experiment: Acute toxicity in Swiss albino mouse assessed as changes in relative weight of heart up to 1000 mg/kg, po qd administered as single dose for 7 days; format: organism-based; conditions: in vivo, 168 h
Mus musculus [14] = experiment: Acute toxicity in Swiss albino mouse assessed as body weight at 5 mg/kg, po qd administered as single dose for 7 days (reference value: 27.73 +/- 0.94 g); format: organism-based; conditions: in vivo, 168 h
Mus musculus [15] = experiment: Acute toxicity in Swiss albino mouse assessed as serum haemoglobin level at 5 mg/kg, po qd administered as single dose for 7 days (reference value: 13.29 +/- 0.46 g/dl); format: organism-based; conditions: in vivo, 168 h
Mus musculus [16] = experiment: Acute toxicity in Swiss albino mouse assessed as serum haemoglobin level at 50 mg/kg, po qd administered as single dose for 7 days (reference value: 13.29 +/- 0.46 g/dl); format: organism-based; conditions: in vivo, 168 h
Mus musculus [17] = experiment: Acute toxicity in Swiss albino mouse assessed as serum haemoglobin level at 300 mg/kg, po qd administered as single dose for 7 days (reference value: 13.29 +/- 0.46 g/dl); format: organism-based; conditions: in vivo, 168 h
Mus musculus [18] = experiment: Acute toxicity in Swiss albino mouse assessed as serum RBC level at 5 mg/kg, po qd administered as single dose for 7 days (reference value: 9.07 +/- 1.13 million/mm3); format: organism-based; conditions: in vivo, 168 h
Mus musculus [19] = experiment: Acute toxicity in Swiss albino mouse assessed as serum RBC level at 1000 mg/kg, po qd administered as single dose for 7 days (reference value: 9.07 +/- 1.13 million/mm3); format: organism-based; conditions: in vivo, 168 h
Mus musculus [20] = experiment: Acute toxicity in Swiss albino mouse assessed as serum WBC level at 300 mg/kg, po qd administered as single dose for 7 days (reference value: 8.64 +/- 0.42 10^3/mm3); format: organism-based; conditions: in vivo, 168 h
Mus musculus [21] = experiment: Acute toxicity in Swiss albino mouse assessed as serum ALP level at 50 mg/kg, po qd administered as single dose for 7 days (reference value: 292.13 +/- 40.29 U/L); format: organism-based; conditions: in vivo, 168 h
Mus musculus [22] = experiment: Acute toxicity in Swiss albino mouse assessed as serum ALP level at 1000 mg/kg, po qd administered as single dose for 7 days (reference value: 292.13 +/- 40.29 U/L); format: organism-based; conditions: in vivo, 168 h
Mus musculus [23] = experiment: Acute toxicity in Swiss albino mouse assessed as serum SGOT level at 1000 mg/kg, po qd administered as single dose for 7 days (reference value: 34.32 +/- 3.78 U/L); format: organism-based; conditions: in vivo, 168 h
Mus musculus [24] = experiment: Acute toxicity in Swiss albino mouse assessed as serum SGPT level at 5 mg/kg, po qd administered as single dose for 7 days (reference value: 23.06 +/- 1.92 U/L); format: organism-based; conditions: in vivo, 168 h
Mus musculus [25] = experiment: Acute toxicity in Swiss albino mouse assessed as serum SGPT level at 300 mg/kg, po qd administered as single dose for 7 days (reference value: 23.06 +/- 1.92 U/L); format: organism-based; conditions: in vivo, 168 h
Mus musculus [26] = experiment: Acute toxicity in Swiss albino mouse assessed as serum albumin level at 1000 mg/kg, po qd administered as single dose for 7 days (reference value: 2.49 +/- 0.17 g/dl); format: organism-based; conditions: in vivo, 168 h
Mus musculus [27] = experiment: Acute toxicity in Swiss albino mouse assessed as serum creatinine level at 50 mg/kg, po qd administered as single dose for 7 days (reference value: 0.09 +/- 0.01 mg/dl); format: organism-based; conditions: in vivo, 168 h
Mus musculus [28] = experiment: Acute toxicity in Swiss albino mouse assessed as serum creatinine level at 300 mg/kg, po qd administered as single dose for 7 days (reference value: 0.09 +/- 0.01 mg/dl); format: organism-based; conditions: in vivo, 168 h
Mus musculus [29] = experiment: Acute toxicity in Swiss albino mouse assessed as serum triglycerides level at 5 mg/kg, po qd administered as single dose for 7 days (reference value: 107.9 +/- 10.7 mg/dl); format: organism-based; conditions: in vivo, 168 h
Mus musculus [30] = experiment: Acute toxicity in Swiss albino mouse assessed as serum protein level at 5 mg/kg, po qd administered as single dose for 7 days (reference value: 2.91 +/- 0.31 mg/ml); format: organism-based; conditions: in vivo, 168 h
Mus musculus [31] = experiment: Acute toxicity in Swiss albino mouse assessed as serum cholesterol level at 5 mg/kg, po qd administered as single dose for 7 days (reference value: 68.37 +/- 4.42 mg/dl); format: organism-based; conditions: in vivo, 168 h
Mus musculus [32] = experiment: Acute toxicity in Swiss albino mouse assessed as serum cholesterol level at 50 mg/kg, po qd administered as single dose for 7 days (reference value: 68.37 +/- 4.42 mg/dl); format: organism-based; conditions: in vivo, 168 h
Mus musculus [33] = experiment: Acute toxicity in Swiss albino mouse assessed as serum cholesterol level at 300 mg/kg, po qd administered as single dose for 7 days (reference value: 68.37 +/- 4.42 mg/dl); format: organism-based; conditions: in vivo, 168 h
Mus musculus [34] = experiment: Acute toxicity in Swiss albino mouse assessed as serum cholesterol level at 1000 mg/kg, po qd administered as single dose for 7 days (reference value: 68.37 +/- 4.42 mg/dl); format: organism-based; conditions: in vivo, 168 h
Mus musculus [35] = experiment: Acute toxicity in Swiss albino mouse assessed as effect on eosinophil count up to 1000 mg/kg, po qd administered as single dose for 7 days; format: organism-based; conditions: in vivo, 168 h

In the case of O=C1C=C(OCc2ccccc2)C(=O)c2ccccc21, the Activity (Mus musculus [1]) is reported as 38.3 U/L, the IC50 [2] is reported as 13.9 µM and the IC50 [3] is reported as > 150 µM. The inhibition (FaDu) was 36.6%, the Activity [4] was “Active” and the Activity (Mus musculus [5]) was “Non-Toxic”. For the same molecule, the Activity (Mus musculus [6]) was “Non-Toxic”, the Activity (Mus musculus [7]) was “Non-Toxic” and the Activity (Mus musculus [8]) was “Non-Toxic”. The Activity (Mus musculus [9]) was “Non-Toxic”, the Activity (Mus musculus [10]) was “Non-Toxic” and the Activity (Mus musculus [11]) was “Non-Toxic”. For the same molecule, the Activity (Mus musculus [12]) was “Non-Toxic”, the Activity (Mus musculus [13]) was “Non-Toxic” and the Activity (Mus musculus [14]) was 26.34 g. It also gave an Activity (Mus musculus [15]) of 12.65 g/dL, an Activity (Mus musculus [16]) of 13.26 g/dL and an Activity (Mus musculus [17]) of 13.42 g/dL. The Activity (Mus musculus [18]) was 8.67 million/mm3, the Activity (Mus musculus [19]) was 8.89 million/mm3 and the Activity (Mus musculus [20]) was 8.52 ×10³ /mm3. It also gave an Activity (Mus musculus [21]) of 304.24 U/L, an Activity (Mus musculus [22]) of 385.91 U/L and an Activity (Mus musculus [23]) of 31.68 U/L. For the same molecule, the Activity (Mus musculus [24]) was 19.16 U/L, the Activity (Mus musculus [25]) was 20.48 U/L and the Activity (Mus musculus [26]) was 2.88 g/dL. The Activity (Mus musculus [27]) was 0.16 mg/dL, the Activity (Mus musculus [28]) was 0.13 mg/dL and the Activity (Mus musculus [29]) was 130.9 mg/dL. It also gave an Activity (Mus musculus [30]) of 2.55 mg/mL, an Activity (Mus musculus [31]) of 65.28 mg/dL and an Activity (Mus musculus [32]) of 65.13 mg/dL. For the same molecule, the Activity (Mus musculus [33]) was 45.62 mg/dL, the Activity (Mus musculus [34]) was 51.05 mg/dL and the Activity (Mus musculus [35]) was “Non-Toxic”.
